The results in this text go back to patent US6964983B2, “Compounds that modulate PPAR activity and methods for their preparation” (Warner-Lambert Company, LLC, priority 2002, dated 2005).

In general, melting point refers to the temperature, or range, at which the solid turns liquid.

One data set addresses T1, hPPARβ (Homo sapiens, UniProt Q03181).
T1 sequence (Q03181 171-441 limits assumed): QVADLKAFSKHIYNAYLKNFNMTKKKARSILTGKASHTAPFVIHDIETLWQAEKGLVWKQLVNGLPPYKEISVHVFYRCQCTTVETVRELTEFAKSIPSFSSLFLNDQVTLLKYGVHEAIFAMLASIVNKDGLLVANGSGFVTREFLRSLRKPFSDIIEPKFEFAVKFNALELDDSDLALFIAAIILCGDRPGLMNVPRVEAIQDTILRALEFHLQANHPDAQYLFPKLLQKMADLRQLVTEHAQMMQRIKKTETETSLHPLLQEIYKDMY
In words: Transient transfection assay in HepG2 cells, Gal4-hPPARβ chimeric receptor, luciferase reporter. It counts as cell-based. As to the method:
1. Test A. Transient Transfections Assay using the HepG2 Hepatoma Cell Line.
HepG2 cells were transiently transfected with an expression plasmids encoding hPPARα, hPPARβ or mPPARγ chimeric receptors and a reporter containing the yeast upstream activating sequence (UAS) upstream of the viral E1B promoter controlling a luciferase reporter gene. In addition, the plasmid pRSVβ-gal was used to control for transfection efficiency. HepG2 cells were grown in DMEM supplemented with 10% FBS and 1 μM non-essential amino acid. On the first day, cells were split into 100 mm dishes at 2.5×10^6/dish and incubated overnight at 37° C./5% CO2. On the second day the cells were transiently transfected with plasmid DNA encoding a chimeric receptor, the luciferase reporter gene; and β-gal. For each 100 mm dish, 15 μg of lucifease reporter (PG5E1b) DNA, 15 μg of Gal4-PPAR chimeric receptor DNA, and 1.5 μg of β-gal plasmid DNA were mixed with 1.4 ml of opti-MEM in the tube. 28 μl of LipoFectamine-2000 reagent was added to 1.4 ml of opti-MEM in the tube, and incubate for 5 min at RT. The diluted Lipofectamine-2000 reagent was combined with the DNA mixture, and incubate for 20 min at RT. After fresh medium was added to each 100 mm dish of cells, 2.8 ml of Lipofectamine2000-DNA mixture was added dropwise to the 100 mm dish containing 14 ml of medium, and incubate 37° C. overnight. On day three cells were trypsinized off the 100 mm dishes and re-plated on 96 well plates. Cells were plated at 2.5×10^4 cells per well in 150 μl of media and 50 μl of compound diluted by media was added. The test compound added were in the range from 50 μM to 50 pM. After addition of compounds, the plates were incubated at 37° C. for 24 hours. Subsequently cells were washed with once with 100 μl of PBS, lysed, and processed for measuring luciferase and β-gal activity using Dual-Light luciferase kit from Tropix ®, according to the manufacturer's recommendations, on an EG&G Bethold MicroLumat LB96P luminometer. EC50 values were obtained using the GraphPad Prism™ program.
(A reporter such as luciferase makes a cellular process visible.)

Where [1] appears, read: Hep G2-hBeta EC50, 24 hours incubation, read-out: EC50β nM (Group).

Where two headings read alike, the source gives them in different places.

The molecule `O=C(O)COc1ccc(SCc2ccc(OCc3ccc(OC(F)(F)F)cc3)cc2)c2c1CCC2` [Example 75, {7-[4-(4-Trifluoromethoxy-benzyloxy)-benzylsulfanyl]-indan-4-yloxy}-acetic acid] returned a melting point of 140 to 142 °C. Moreover, the EC50 at hPPARβ (setting [1]) lay within 500 to 1000 nM.
For `O=C(O)COc1ccc(SCCc2ccc(-c3ccc(C(F)(F)F)cc3)cc2)c2c1CCC2` [Example 90, {7-[2-(4′-Trifluoromethyl-biphenyl-4-yl)-ethylsulfanyl]-indan-4-yloxy}-acetic acid] the same measures were 170 to 172 °C and 500 to 1000 nM.
The like results for `COc1cc(OCC(=O)O)c(C)cc1SCc1ccc(-c2c(C)cc(C)cc2C)cc1` [Example 5, [5-Methoxy-2-methyl-4-(2′,4′,6′-trimethyl-biphenyl-4-ylmethylsulfanyl)-phenoxy]-acetic acid] were, in that order, 141 °C and 1000 to 2000 nM.
For `O=C(O)COc1ccc(SCc2ccc(OCc3ccc(Cl)c(Cl)c3)cc2)c2c1CCC2` [Example 72, {7-[4-(3,4-Dichloro-benzyloxy)-benzylsulfanyl]-indan-4-yloxy}-acetic acid] the same measures were 168 °C and 1000 to 2000 nM.
For the molecule `COc1cc(OCC(=O)O)c(C)cc1[S+]([O-])Cc1ccc(-c2ccc(C(F)(F)F)cc2)cc1` (centres unmarked) [Example 51, [5-Methoxy-2-methyl-4-(4′-trifluoromethyl-biphenyl-4-ylmethanesulfinyl)-phenoxy]-acetic acid], the EC50 at hPPARβ (setting [1]) lay within 2000 to 5000 nM.
For the molecule `O=C(O)COc1ccc(SCc2ccc(OCc3ccccc3)cc2)c2c1CCC2` [Example 69, [7-(4-Benzyloxy-benzylsulfanyl)-indan-4-yloxy]-acetic acid], the melting point lay within 145 to 147 °C. Further, the EC50 on hPPARβ (setting [1]) lay within 2000 to 5000 nM.
For `O=C(O)COc1ccc(SCc2ccc(-c3ccc(C(F)(F)F)cc3)cc2)c2c1CCCO2` [Example 93, [8-(4′-Trifluoromethyl-biphenyl-4-ylmethylsulfanyl)-chroman-5-yloxy]-acetic acid] the same measures were 170 to 172 °C and 500 to 1000 nM.
`Cc1cc(SCc2ccc(OCc3ccccn3)cc2)ccc1OCC(=O)O` [Example 60, {2-Methyl-4-[4-(pyridine-2-ylmethoxy)-benzylsulfanyl]-phenoxy}-acetic acid]: the melting point came out at 150 °C. Further, the EC50 at hPPARβ (setting [1]) was above 5000 nM.
Molecule `CC(C)(C)c1ccc(COc2ccc(CSc3ccc(OCC(=O)O)c4c3CCC4)cc2)cc1` [Example 67, {7-[4-(4-tert-Butyl-benzyloxy)-benzylsulfanyl]-indan-4-yloxy}-acetic acid] yielded a melting point of 152 to 153 °C. In addition, the EC50 at hPPARβ was below 300 nM.
`Cc1cc(SCc2ccc(Oc3ccccc3)cc2)ccc1OCC(=O)O` [Example 47, [2-Methyl-4-(4-phenoxy-benzylsulfanyl)-phenoxy]-acetic acid]: the EC50 on hPPARβ (setting [1]) is above 5000 nM.
As for `COc1ccc(CSc2ccc(OCC(=O)O)c3c2CCC3)cc1OCc1ccc(C(F)(F)F)cc1` [Example 78, {7-[4-Methoxy-3-(4-trifluoromethyl-benzyloxy)-benzylsulfanyl]-indan-4-yloxy}-acetic acid], the melting point is 150 to 151 °C. In addition, the EC50 at hPPARβ (setting [1]) fell in the range of 300 to 500 nM.
In the case of `Cc1cc(/C=C/c2ccc(-c3ccc(C(F)(F)F)cc3)cc2)ccc1OCC(=O)O` [Example 24, {2-Methyl-4-[2-(4′-trifluoromethyl-biphenyl-4-yl)-vinyl]-phenoxy}-acetic acid], the melting point was in the range of 243 to 245 °C.
Turning to `O=C(O)COc1ccc(SCc2ccc(Cc3ccc(C(F)(F)F)cc3)cc2)c2c1CCC2` [Example 40, {7-[4-(4-trifluoromethyl-benzyl)-benzylsulfanyl]-indan-4-yloxy}-acetic acid], at hPPARβ (setting [1]), the EC50 was in the range of 500 to 1000 nM.
Regarding `Cc1cc(SCc2ccc(OCc3ccccc3)cc2)ccc1OCC(=O)O` [Example 13, [4-(4-Benzyloxy-benzylsulfanyl)-2-methyl-phenoxy]-acetic acid], the melting point lay in the range of 120 to 121 °C.
Still for that read-out and setting: next, `Cc1cc(SCc2cc(-c3ccc(Cl)cc3)on2)ccc1OCC(=O)O` [Example 96, {4-[5-(4-Chloro-phenyl)-isoxazol-3-ylmethylsulfanyl]-2-methyl-phenoxy}-acetic acid]: 152 to 153 °C.
With `O=C(O)COc1ccc(SCc2ccc(-c3ccc(C(F)(F)F)cc3)cc2)c2c1CCC2` [Example 12, [7-(4′-Trifluoromethyl-biphenyl-4-ylmethylsulfanyl)-indan-4-yloxy]-acetic acid], the melting point was 158 to 159 °C. At hPPARβ (setting [1]), the EC50 was below 300 nM.
Turning to `O=C(O)COc1ccc(SCc2ccc(OCc3ccc(F)cc3C(F)(F)F)cc2)c2c1CCC2` [Example 76, {7-[4-(4-Fluoro-2-trifluoromethyl-benzyloxy)-benzylsulfanyl]-indan-4-yloxy}-acetic acid], the melting point was in the range of 125 to 127 °C. The EC50 on hPPARβ (setting [1]) lay in the range of 1000 to 2000 nM.
As for `O=C(O)COc1ccc(SCc2cc(-c3ccc(C(F)(F)F)cc3)on2)c2c1CCCO2` [Example 94, {8-[5-(4-Trifluoromethyl-phenyl)-isoxazol-3-ylmethylsulfanyl]-chroman-5-yloxy}-acetic acid], the melting point fell in the range of 171 to 173 °C.
For the molecule `COc1cc(OCC(=O)O)c(C)cc1S(=O)(=O)Cc1ccc(-c2ccc(C(F)(F)F)cc2)cc1` [Example 50, [5-Methoxy-2-methyl-4-(4′-trifluoromethyl-biphenyl-4-ylmethanesulfonyl)-phenoxy]-acetic acid], on hPPARβ (setting [1]), the EC50 lay in the range of 2000 to 5000 nM.
Molecule `Cc1cc(SCc2ccc(OCc3ccc(C(F)(F)F)cc3)cc2)ccc1OCC(=O)O` [Example 15, {2-Methyl-4-[4-(4-trifluoromethyl-benzyloxy)-benzylsulfanyl]-phenoxy}-acetic acid] had a melting point of 133 °C. The EC50 at hPPARβ (setting [1]) was below 300 nM.
The like results for `Cc1cc(SCc2cc(-c3ccc(C(F)(F)F)cc3)on2)c(Cl)cc1OCC(=O)O` [Example 99, {5-Chloro-2-methyl-4-[5-(4-trifluoromethyl-phenyl)-isoxazol-3-ylmethylsulfanyl]-phenoxy}-acetic acid] were, in that order, 180 to 182 °C and 300 to 500 nM.
In turn, `O=C(O)COc1ccc(SCc2cc(-c3ccc(Cl)cc3)on2)c2c1CCCO2` [Example 95, {8-[5-(4-Chloro-phenyl)-isoxazol-3-ylmethylsulfanyl]-chroman-5-yloxy}-acetic acid] came in with a melting point of 181 to 183 °C.
For `COc1cc(OCC(=O)O)c(C)cc1SCc1ccc(-c2ccc(C(F)(F)F)cc2)cc1C` [Example 39, [5-Methoxy-2-methyl-4-(3-methyl-4′-trifluoromethyl-biphenyl-4-ylmethylsulfanyl)-phenoxy]-acetic acid], the EC50 on hPPARβ (setting [1]) is below 300 nM.
Take `Cc1cc(SCc2ccc(-c3ccccc3)cc2)ccc1OCC(=O)O` [Example 2, [4-(Biphenyl-4-ylmethylsulfanyl)-2-methyl-phenoxy]-acetic acid]: the melting point is 138 °C.
For the molecule `Cc1cc(SCc2ccc(-c3ccc(C(F)(F)F)cn3)cc2)c(Cl)cc1OCC(=O)O` [Example 37, {5-Chloro-2-methyl-4-[4-(5-trifluoromethyl-pyridin-2-yl)-benzylsulfanyl]-phenoxy}-acetic acid], the EC50 at hPPARβ (setting [1]) was below 300 nM.
Turning to `COc1cc(OCC(=O)O)c(C)cc1SCCc1cn(Cc2ccc(C(F)(F)F)cc2)c2ccccc12` [Example 54, (5-Methoxy-2-methyl-4-{2-[1-(4-trifluoromethyl-benzyl)-1H-indol-3-yl]-ethylsulfanyl}-phenoxy)-acetic acid], at hPPARβ (setting [1]), the EC50 lay in the range of 300 to 500 nM.
`O=C(O)COc1ccc(SCc2ccc(-c3ccc(C(F)(F)F)cn3)cc2)c2c1CCCO2` [Example 86, {8-[4-(5-Trifluoromethyl-pyridine-2-yl)-benzylsulfanyl]-chroman-5-yloxy}-acetic acid] returned a melting point of 178 to 179 °C.
On to `O=C(O)COc1ccc(SCc2cc(-c3ccc(C(F)(F)F)cc3)on2)c2c1CCCC2` [Example 102, {4-[5-(4-trifluoromethyl-phenyl)-isoxazol-3-ylmethylsulfanyl]-5,6,7,8-tetrahydro-naphthalen-1-yloxy}-acetic acid], for which the melting point fell in the range of 167 to 170 °C.
